Results from patent US6933150B1, “Relationship of ABC transport proteins with hematopoietic stem cells and methods of use thereof” (priority 1998, dated 2005).

Assays:
ABC transporter = assay: SP cell analysis of mdr1a/1b knockout bone marrow cells treated with ABC transporter inhibitors; conditions: treatment before and during Hoechst 33342 staining
Description: Hoechst 33342 SP cell assay: Murine bone marrow cells were collected and resuspended at 1×10^6 cells/ml in DMEM plus 10 mM HEPES and 2%, FBS. In a water bath, the cells were allowed to equilibrate at 37° C., followed by addition of 5 μg/ml Hoechst 33342 (Fisher Scientific, Pittsburgh, Pa.) for 90 minutes as previously described [Goodell et al., J. Exp. Med., 183:1797-1806 (1996)]. Cells were then centrifuged at 4° C. and resuspended in ice cold HBSS plus 10 mM HEPES and 2% FBS at 1×10^7 cells/ml. For flow cytometric analysis or sorting, a Becton Dickinson FACS Vantage flow cytometer (Becton Dickinson, San Jose, Calif.) was configured for dual emission wavelength analysis as previously described [Goodell et al., J. Exp. Med., 183:1797-1806 (1996)]. Cells were gated based on forward and side light scatter to exclude debris. […] Cells were analyzed at approximately 5,000 cells/second until data from 1×10^6 cells were collected. The SP cell gate was defined based on normal fresh C57BL/6 bone marrow cells.
Cells were treated with either verapamil or 2-deoxyglucose. Verapamil is a competitive inhibitor of several known ABC transporters including MDR1, whereas 2-deoxyglucose is an inhibitor of ATP synthesis that depletes cellular ATP levels required for ABC transporter function.

myeloid progenitors = assay: Drug-resistant myeloid progenitor (CFU-C) assay in methylcellulose; format: cell-based, mouse; conditions: 25 to 50 nM, thymidine phosphorylase-treated methylcellulose
Description: Ex vivo culture and expansion of myeloid progenitors: Following transduction (day 0), cells were cultured in the presence of the growth factor combination described above. Cells were resuspended at 1×10^6 cells/ml every 3-6 days for at least 12 days of expansion. Aliquots of cells were removed for CFU-C analysis at various time points.
Retroviral-mediated gene transfer into murine hematopoietic stem cells: BM cells were harvested from C57BL/6 or B6.Ch-1/By (referred to as “HW80”) congenic mouse strains (Jackson Laboratories, Bar Harbor, Me. ) by standard methods. Following isolation, cells were placed into liquid suspension culture in Dulbecco's Modified Eagle's Medium (DMEM) (BioWhittaker, Walkersville, Md.) with 1% penicillin/streptomycin (Gibco/BRL, Grand Island, N.Y.), 15% fetal bovine serum (FBS; Hyclone, Logan Utah), 20 ng/ml murine interleukin (IL)-3®& D Systems, Minneapolis, Minn.), 50 ng/ml human IL-6 (Amgen, Thousand Oaks, Calif.), and 50 ng/ml murine stem cell factor ® & D Systems). The cells were initially plated at 1×10^6 cells/ml in 10 mls of medium. Following pre-stimulation for 48 hours, cells were replated onto confluent monolayers of irradiated ecotropic producer cell lines. The bone marrow cells were plated at the same density used in the pre-stimulation phase and in the same medium with 6 μg/ml polybrene added. […]

SMILES | Effect on SP cell phenotype (ABC transporter) | Killing of non-transduced background cells (myeloid progenitors)
O=CC[C@@H](O)[C@H](O)[C@H](O)CO [2-deoxyglucose] | eliminated phenotypically identifiable SP cells | 
COc1ccc(CCN(C)CCCC(C#N)(c2ccc(OC)c(OC)c2)C(C)C)cc1OC (stereo not drawn) [verapamil] | eliminated phenotypically identifiable SP cells | 
COc1cc(NCc2ccc3nc(N)nc(N)c3c2C)cc(OC)c1OC [trimetrexate] |  | completely killed
